Series [1] relates to HCV. As to the kind of experiment: microbe, parasite or virus in culture. It is filed as cell-based, Hepatitis C Virus (HCV). The note with it: Huh7.5 cells infected with HCV, intracellular HCV RNA by qRT-PCR, Reed-Muench method. The protocol: (2) Anti-HCV Activity of the Compound in Cells:
The total RNA was extracted from the cells. The intracellular content of HCV and RNA of internal control gene GAPDH were determined by real-time fluorescence qRT-PCR.

A short description of series [2]: in vitro. The note with it: human. On the procedure:
(§1) (1) Toxicity Experiment of the Compound on Huh7.5:
(§2) 100 μL of Huh7.5 cells (1×10^5/ml) was inoculated in 96-wells plates and incubated in an incubator at 37° C. under 5% of CO2 and saturated humidity for 24 hrs. Then different concentration of the compound of the present invention and positive control (VX-950, telaprevir) were added respectively and incubated for a further 72 hrs. 10 μL of MTT (5 mg/mL) was added per well and incubated for another 4 hrs. After the cells were lysed with DMSO, OD570-630 […] was determined on ELIASA. In comparison with OD of the control group, inhibitory rate of each concentration on cell toxicity was calculated, and half toxic concentration of the compound was calculated with Reed-Muench method.

Series [3] concerns Huh7.5 cells. Put plainly: in vitro. The protocol: as §1, §2
Series [4] has as its system Wnt signaling pathway. As to the kind of experiment: Activity assay of the reporter gene (Wnt signaling pathway activation, Wnt3a conditioned medium). It counts as cell-based. The note with it: for activation of the reporter gene systems of classical Wnt signaling pathway: in the way of depending on Wnt3a receptors; for Concentration of compounds for doubly synergetic activating Wnt reporter gene: with Wnt3a conditioned medium. The protocol: After 6 hours, the cells are collected and activities of the report genes are determined.
Activity Assay of the Reporter Gene
HEK293T, HCT116, SW480 or NIH3T3 cells used for activity assay of the reporter gene were inoculated into 24-wells plates respectively 24 hours before transfection then transfected following the above mentioned reference method. The amount of the plasmids used for Transfection was: 20 ng of TOPFlash, NFAT-Luc, or SRF-Luc, and 25 ng of EGFP-C1 (HEK293T); 25 ng of LEF-Luc, 75 ng of LEF1, and 25 ng of EGFP-C1 (NIH3T3); 100 ng of TOPFlash or Fopfllash and 100 ng of EGFP-C1 (HCT116 and SW480). The cells were transfected with other plasmids following experimental requirements, LacZs were added to meet a total content of 250 ng (in RNAi and plasmid co-transfection experiments, 1 μl of siRNA was added when every 100 ng/well of the plasmid was transfected). Wnt3a conditioned medium was added 18 hours after transfection to stimulate the cells for 6-8 hours, the cells were lysed using Boehringer Mannheim Luci-ferase Assay Kit (200 μl/well). Intensity of GFP proteins in cell lysates were determined as internal standards of expression quantity of the cells using fluorescence meter FL600 (BIO-TEK Inc. Winooski, Vt.), and then 20 μl of luciferase substrates were added. Luciferase activity was determined with Micro Lumate Plus (Perkin Elmer Inc. Wellesley, Mass.) luminometer. Finally, the luciferase activity was homogenized using activity of GFP.
On the technique in general: In a reporter assay the amount or activity of a reporter protein is the signal.

Where [5] appears, read: Hepatitis C virus, Huh7.5, 72 h.

Read-outs that look alike come from different tables or passages of the source. Bounds are passed on as bounds.

What is called EC50 is the midpoint of the concentration-response curve. Turning to `C=Cc1cccc2c1N(C)Cc1cc(OC(C)=O)c(OC(C)=O)cc1-2` [Compound 11h, 4-ethenyl-5-methyl-8,9-diacetoxy-5,6-dihydro-phenanthridine], the EC50 in series [1] (setting [5]) came out at 1.63 ± 0.91 µM. In series [2], the CC50 at 72 h was over 100 µM.
For `CCc1cccc2c1N(C)Cc1cc(OC)c(OC)cc1-2` [Compound 10a, 4-ethyl-5-methyl-8,9-dimethoxy-5,6-dihydro-phenanthridine] the same measures were under 0.41 µM and over 100 µM.
For `C=CCOc1cc2c(cc1OCC=C)-c1cccc(CC)c1N(C)C2` [Compound 10c, 4-ethyl-5-methyl-8,9-diallyloxy-5,6-dihydro-phenanthridine] the same measures were 16.3 ± 10.1 µM and over 100 µM.
As to `CCc1cccc2c1N(C)Cc1cc(OC(=O)c3ccc(Br)cc3)c(OC(=O)c3ccc(Br)cc3)cc1-2` [Compound 10p, 4-ethyl-5-methyl-8,9-di(4-bromo)benzoyloxy-5,6-dihydro-phenanthridine], in series [1] (72 hrs, read-out: EC50), the concentration giving a half-maximal response (EC50) worked out at 1.19 ± 0.02 µM. Moreover, in series [3], the CC50 is over 100 µM.
The compound `CCc1cccc2c1N(C)Cc1cc(OC(=O)c3ccccc3)c(OC(=O)c3ccccc3)cc1-2` [Compound 10o, 4-ethyl-5-methyl-8,9-dibenzoyloxy-5,6-dihydro-phenanthridine] yielded an EC50 in series [1] (setting [5]) of 11 ± 2.23 µM. This compound came in with a CC50 at 72 h in series [2] of 91.5 ± 4.19 µM.
For `C=Cc1cccc2c1N(C)Cc1cc(OC(=O)CC)c(OC(=O)CC)cc1-2` [Compound 11i, 4-ethenyl-5-methyl-8,9-dipropionyloxy-5,6-dihydro-phenanthridine] the same measures were 1.02 ± 0.16 µM and over 100 µM.
For `C=Cc1cccc2c1N(C)Cc1cc(OC(=O)CC(C)C)c(OC(=O)CC(C)C)cc1-2` [Compound 11l, 4-ethenyl-5-methyl-8,9-diisovaleroxy-5,6-dihydro-phenanthridine] the same measures were 3.27 ± 1.26 µM and over 100 µM.
For `CCc1cccc2c1N(C)Cc1cc(OC(=O)CC(C)C)c(OC(=O)CC(C)C)cc1-2` [Compound 10n, 4-ethyl-5-methyl-8,9-diisovaleroxy-5,6-dihydro-phenanthridine] the same measures were 1.43 ± 0.45 µM and 50.3 ± 1 µM.
The compound `C=Cc1cccc2c1N(C)Cc1cc(OCc3ccccc3)c(OCc3ccccc3)cc1-2` [Compound 11e, 4-ethenyl-5-methyl-8,9-dibenzyloxy-5,6-dihydro-phenanthridine] gave an EC50 in series [1] (setting [5]) of 13.4 ± 0.98 µM. The compound further displayed a CC50 at 72 h in series [2] of over 100 µM.
Turning to `CCc1cccc2c1N(C)Cc1cc3c(cc1-2)OCO3` [Compound 9, 4-ethyl-5-methyl-5,6-dihydro-[1,3]dioxolo[4,5-j]phenanthridine], in series [4], the “activation of the reporter gene systems of classical Wnt signaling pathway” value (shortened to “activation”) is “activate the reporter gene systems of classical Wnt signaling pathway” and the “Concentration of compounds for doubly synergetic activating Wnt reporter gene” value (shortened to “Concentration of compounds”) stood at 3.75 µM.
`CCc1cccc2c1N(C)Cc1cc(OCc3cn(CCNC(C)=O)nn3)c(OCc3cn(CCNC(C)=O)nn3)cc1-2` [Compound 10r, 4-ethyl-5-methyl-8,9-bis[1-(2-acetylamino-ethyl)-1H-[1,2,3]triazol-4-ylmethoxy]-5,6-dihydro-phenanthridine]: in series [4], the “activation” value is recorded as “activate the reporter gene systems of classical Wnt signaling pathway” and the “Concentration of compounds” value was 1.25 µM.
On to `CCc1cccc2c1N(C)Cc1cc(O)c(O)cc1-2` [Compound 10, 4-ethyl-5-methyl-5,6-dihydro-phenanthridine-8,9-diol], for which the EC50 in series [1] (setting [5]) was over 11.1 µM. Moreover, the CC50 at 72 h in series [2] worked out at 61.3 ± 8.4 µM.
The matching figures for `CCc1cccc2c1N(C)Cc1cc(OCC3CCC3)c(OCC3CCC3)cc1-2` [Compound 10e, 4-ethyl-5-methyl-8,9-bis-cyclobutylmethoxy-5,6-dihydro-phenanthridine]: 9.5 ± 2.71 µM and over 100 µM.
On to `C=Cc1cccc2c1N(C)Cc1cc(OCC3CCCCC3)c(OCC3CCCCC3)cc1-2` [Compound 11d, 4-ethenyl-5-methyl-8,9-bis-cyclohexylmethoxy-5,6-dihydro-phenanthridine], for which the half-maximal effective concentration (EC50) in series [1] (setting [5]) is over 33.3 µM. This compound also registered a CC50 at 72 h in series [2] of over 100 µM.
For `CCc1cccc2c1N(C)Cc1cc(OC(=O)C(C)C)c(OC(=O)C(C)C)cc1-2` [Compound 10l, 4-ethyl-5-methyl-8,9-diisobutyryloxy-5,6-dihydro-phenanthridine] the same measures were 13.9 ± 11.4 µM and over 100 µM.
For `CCc1cccc2c1N(C)Cc1cc(OCC3CCCCC3)c(OCC3CCCCC3)cc1-2` [Compound 10f, 4-ethyl-5-methyl-8,9-bis-cyclohexylmethoxy-5,6-dihydro-phenanthridine] the same measures were 10.8 ± 2.86 µM and over 100 µM.
For `C=Cc1cccc2c1N(C)Cc1cc(OC(=O)C(C)C)c(OC(=O)C(C)C)cc1-2` [Compound 11j, 4-ethenyl-5-methyl-8,9-diisobutyryloxy-5,6-dihydro-phenanthridine] the same measures were 1.83 ± 0.17 µM and over 100 µM.
`C=Cc1cccc2c1N(C)Cc1cc(O)c(O)cc1-2` [Compound 11, 4-ethenyl-5-methyl-5,6-dihydrophenanthridine-8,9-diol] showed an EC50 in series [1] (setting [5]) of 8.37 ± 2.39 µM. The CC50 at 72 h in series [2] was over 100 µM.
On to `C=Cc1cccc2c1N(C)Cc1cc(OCc3cn(CCN)nn3)c(OCc3cn(CCN)nn3)cc1-2` [Compound 11q, 4-ethenyl-5-methyl-8,9-bis[1-(2-amino-ethyl)-1H-[1,2,3]triazol-4-ylmethoxy]-5,6-dihydrophenanthridine], for which, in series [4], the “activation” value is given as “activate the reporter gene systems of classical Wnt signaling pathway” and the “Concentration of compounds” value is 2.5 µM.
In series [1] (setting [5]), `C=CCOc1cc2c(cc1OCC=C)-c1cccc(C=C)c1N(C)C2` [Compound 11a, 4-ethenyl-5-methyl-8,9-diallyloxy-5,6-dihydro-phenanthridine] had an EC50 of 28.8 ± 5.38 µM. The compound also had a CC50 at 72 h in series [2] of over 100 µM.
As for `C=Cc1cccc2c1N(C)Cc1cc(OCc3cn(CCNC(C)=O)nn3)c(OCc3cn(CCNC(C)=O)nn3)cc1-2` [Compound 11r, 4-ethenyl-5-methyl-8,9-bis[1-(2-acetylamino-ethyl)-1H-[1,2,3]triazol-4-ylmethoxy]-5,6-dihydro-phenanthridine], in series [4], the “activation” value is “activate the reporter gene systems of classical Wnt signaling pathway” and the “Concentration of compounds” value stood at 5 µM.
In turn, `C#CCOc1cc2c(cc1OCC#C)-c1cccc(C=C)c1N(C)C2` [Compound 11b, 4-ethenyl-5-methyl-8,9-di(prop-2-ynyloxy)-5,6-dihydro-phenanthridine] gave an EC50 in series [1] (setting [5]) of 4.2 ± 1.72 µM. Further, the CC50 at 72 h in series [2] is over 100 µM.
The matching figures for `CCc1cccc2c1N(C)Cc1cc(OC(C)=O)c(OC(C)=O)cc1-2` [Compound 10j, 4-ethyl-5-methyl-8,9-diacetoxy-5,6-dihydro-phenanthridine]: 0.23 ± 0.08 µM and 90.1 ± 7.4 µM.
The compound `CCc1cccc2c1N(C)Cc1cc(OCc3ccccc3)c(OCc3ccccc3)cc1-2` [Compound 10g, 4-ethyl-5-methyl-8,9-dibenzyloxy-5,6-dihydro-phenanthridine] came in with an EC50 in series [1] (setting [5]) of 1.25 ± 0.56 µM. Further, the CC50 at 72 h in series [2] was 30.2 ± 0.6 µM.
The matching figures for `C=Cc1cccc2c1N(C)Cc1cc(OCC3CCC3)c(OCC3CCC3)cc1-2` [Compound 11c, 4-ethenyl-5-methyl-8,9-bis-cyclobutylmethoxy-5,6-dihydro-phenanthridine]: 11.3 ± 1.66 µM and over 100 µM.
Regarding `C=Cc1cccc2c1N(C)Cc1cc(OC(=O)c3ccccc3)c(OC(=O)c3ccccc3)cc1-2` [Compound 11m, 4-ethenyl-5-methyl-8,9-dibenzoyloxy-5,6-dihydro-phenanthridine], in series [1] (setting [5]), the EC50 amounted to 1.03 ± 0.07 µM. The CC50 at 72 h in series [2] is over 100 µM.
The matching figures for `C#CCOc1cc2c(cc1OCC#C)-c1cccc(CC)c1N(C)C2` [Compound 10d, 4-ethyl-5-methyl-8,9-diprop-2-ynyloxy-5,6-dihydro-phenanthridine]: 0.83 ± 0.35 µM and 58.3 ± 2.1 µM.

For the origin of these results see patent US9682954B2, “Phenanthridine derivatives, preparation methods and uses thereof” (Kunming Institute of Botany, The Chinese Academy of Sciences, priority 2013, dated 2017).
